From patent publication US11000033B2, “Ketone or oxime compound, and herbicide” (NISSAN CHEMICAL CORPORATION, priority 2014, dated 2021)

What was measured:
Type in all cases: in vivo
Scirpus juncoides [1] = experiment: Test Example 1: herbicidal activity, application before weed generation in submerged conditions (symbol B); conditions: application herbicide amount 320 g/ha
In short: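 Pre-emergence, paddy conditions: emulsifiable formulation diluted in water, dosed onto floodwater (4 cm depth) on sowing day. Alluvial soil; weeds sown mixed; rice transplanted at 2.5-leaf stage. Greenhouse 25–30 °C, 3 wk. Score 0–5 (5 = ≥90% kill, 0 = ≤5%).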

Scirpus juncoides [2] = experiment: Test Example 2: herbicidal activity, application during weed generation in submerged conditions (symbol B); conditions: Table 23; application herbicide amount 320 g/ha; grade 0-5 by criteria of Test Example 1
In short: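 Flooded-soil post-emergence test: emulsion of compound, water-diluted to target rate, applied to paddy water surface at 1–2 leaf stage of mixed-sown weeds (alluvial soil, 4 cm water, 25–30° C. greenhouse); visual rating 3 weeks after application.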

[3] = system: Echinochloa crus-galli var. crus-galli; experiment: Test Example 4: herbicidal effect by soil treatment (symbol H); conditions: application herbicide amount 320 g/ha
In short: (§1)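 Seeds were sown in sterilized diluvial soil, covered with about 1.5 cm of soil, and the soil surface was sprayed with a water-diluted emulsion of the compound at a predetermined rate. Plants grew in a greenhouse at 25° C. to 30° C.; effects were scored visually 3 weeks after application.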

Avena fatua [4] = experiment: Test Example 4: herbicidal effect by soil treatment (symbol I); conditions: application herbicide amount 320 g/ha
In short: as §1

Apera spica-venti [5] = experiment: Test Example 4: herbicidal effect by soil treatment (symbol L); conditions: application herbicide amount 320 g/ha
In short: as §1

Amaranthus retroflexus = experiment: Test Example 4: herbicidal effect by soil treatment (symbol N); conditions: application herbicide amount 320 g/ha
In short: as §1

Galium spurium [6] = experiment: Test Example 4: herbicidal effect by soil treatment (symbol Q); conditions: application herbicide amount 320 g/ha
In short: as §1

wheat = experiment: Test Example 4: effect on crop by soil treatment (symbol e); conditions: application herbicide amount 320 g/ha
In short: (§2)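 Crop seed is sown in spots together with several weed species in a box of sterilized diluvial soil. It is covered by about 1.5 cm of soil and kept in a greenhouse held between 25° C. and 30° C.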

beet [7] = experiment: Test Example 4: effect on crop by soil treatment (symbol f); conditions: application herbicide amount 320 g/ha
In short: as §2

rapeseed = experiment: Test Example 4: effect on crop by soil treatment (symbol g); conditions: application herbicide amount 320 g/ha
In short: as §2

Setaria viridis = experiment: Test Example 5: herbicidal effect by foliage application, plastic box (symbol G); conditions: 320 g/ha, 3 weeks after application
In short: (§3)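 Emulsion formulation, diluted with water to the intended rate, was applied uniformly to leaves by small sprayer. Recipients were 14-day greenhouse-grown seedlings (25° C. to 30° C.). Assessment followed at 3 weeks.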

Avena fatua [8] = experiment: Test Example 5: herbicidal effect by foliage application, plastic box (symbol I); conditions: 320 g/ha, 3 weeks after application
In short: as §3

Apera spica-venti [9] = experiment: Test Example 5: herbicidal effect by foliage application, plastic box (symbol L); conditions: 320 g/ha, 3 weeks after application
In short: as §3

Chenopodium album = experiment: Test Example 5: herbicidal effect by foliage application, plastic box (symbol O); conditions: 320 g/ha, 3 weeks after application
In short: as §3

Galium spurium [10] = experiment: Test Example 5: herbicidal effect by foliage application, plastic box (symbol Q); conditions: 320 g/ha, 3 weeks after application
In short: as §3

Veronica persica = experiment: Test Example 5: herbicidal effect by foliage application, plastic box (symbol R); conditions: 320 g/ha, 3 weeks after application
In short: as §3

soybean = experiment: Test Example 5: effect on crop by foliage application, plastic box (symbol d); conditions: 320 g/ha, 3 weeks after application
In short: (§4)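 Diluvial soil, sterilized and boxed (21 × 13 × 7 cm), received spot-sown seed covered by about 1.5 cm soil; plants were then greenhouse-grown at 25–30° C.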

beet [11] = experiment: Test Example 5: effect on crop by foliage application, plastic box (symbol f); conditions: 320 g/ha, 3 weeks after application
In short: as §4

| Compound | Herbicidal effect grade, B: Scirpus juncoides (Scirpus juncoides [1]) | Herbicidal effect grade, B: Scirpus juncoides (Scirpus juncoides [2]) | H: Echinochloa crus-galli var. crus-galli, herbicidal effect grade [3] | I: Avena fatua, herbicidal effect grade (Avena fatua [4]) | L: Apera spica-venti, herbicidal effect grade (Apera spica-venti [5]) | N: Amaranthus retroflexus, herbicidal effect grade (Amaranthus retroflexus) | Q: Galium spurium, herbicidal effect grade (Galium spurium [6]) | e: wheat, effect on crop grade (wheat) | f: beet, effect on crop grade (beet [7]) | g: rapeseed, effect on crop grade (rapeseed) | G: Setaria viridis, herbicidal effect (criteria of Test Example 1) (Setaria viridis) | I: Avena fatua, herbicidal effect (criteria of Test Example 1) (Avena fatua [8]) | L: Apera spica-venti, herbicidal effect (criteria of Test Example 1) (Apera spica-venti [9]) | O: Chenopodium album, herbicidal effect (criteria of Test Example 1) (Chenopodium album) | Q: Galium spurium, herbicidal effect (criteria of Test Example 1) (Galium spurium [10]) | R: Veronica persica, herbicidal effect (criteria of Test Example 1) (Veronica persica) | d: soybean, effect on crop (criteria of Test Example 1) (soybean) | f: beet, effect on crop (criteria of Test Example 1) (beet [11]) | also measured |
| --- | --- | --- | --- | --- | --- | --- | --- | --- | --- | --- | --- | --- | --- | --- | --- | --- | --- | --- | --- |
| CON=C(C)CC1CC(O)=C(c2c(C)cc(-c3ccccn3)cc2C)C1=O (mixture of isomers) [6-051] | 4 (Herbicidal ratio of 70% or higher and lower than 90%) | 4 (Herbicidal ratio of 70% or higher and lower than 90%) | 5 (Herbicidal ratio of 90% or more (almost completely withered)) | 1 (Herbicidal ratio of 5% or higher and lower than 20%) | 5 (Herbicidal ratio of 90% or more (almost completely withered)) | 5 (Herbicidal ratio of 90% or more (almost completely withered)) | 0 (Herbicidal ratio of 5% or lower (almost no effect)) | 2 (Herbicidal ratio of 20% or higher and lower than 40%) | 0 (Herbicidal ratio of 5% or lower (almost no effect)) | 4 (Herbicidal ratio of 70% or higher and lower than 90%) | – | – | – | – | – | – | – | – | G: Setaria viridis, herbicidal effect grade (Setaria viridis): 5 (Herbicidal ratio of 90% or more (almost completely withered)); I: Avena fatua, herbicidal effect grade (Avena fatua [8]): 4 (Herbicidal ratio of 70% or higher and lower than 90%); L: Apera spica-venti, herbicidal effect grade (Apera spica-venti [9]): 5 (Herbicidal ratio of 90% or more (almost completely withered)); O: Chenopodium album, herbicidal effect grade (Chenopodium album): 5 (Herbicidal ratio of 90% or more (almost completely withered)); Q: Galium spurium, herbicidal effect grade (Galium spurium [10]): 4 (Herbicidal ratio of 70% or higher and lower than 90%); R: Veronica persica, herbicidal effect grade (Veronica persica): 4 (Herbicidal ratio of 70% or higher and lower than 90%); d: soybean, effect on crop grade (soybean): 1 (Herbicidal ratio of 5% or higher and lower than 20%); f: beet, effect on crop grade (beet [11]): 3 (Herbicidal ratio of 40% or higher and lower than 70%) |
| CON=C(C)CC1CC(O)=C(c2c(C)cc(-c3ncccn3)cc2C)C1=O (mixture of isomers) [6-057] | 3 (Herbicidal ratio of 40% or higher and lower than 70%) | 2 (Herbicidal ratio of 20% or higher and lower than 40%) | 5 (Herbicidal ratio of 90% or more (almost completely withered)) | 0 (Herbicidal ratio of 5% or lower (almost no effect)) | 4 (Herbicidal ratio of 70% or higher and lower than 90%) | 0 (Herbicidal ratio of 5% or lower (almost no effect)) | 0 (Herbicidal ratio of 5% or lower (almost no effect)) | 1 (Herbicidal ratio of 5% or higher and lower than 20%) | 0 (Herbicidal ratio of 5% or lower (almost no effect)) | 1 (Herbicidal ratio of 5% or higher and lower than 20%) | 5 (Herbicidal ratio of 90% or more (almost completely withered)) | 5 (Herbicidal ratio of 90% or more (almost completely withered)) | 5 (Herbicidal ratio of 90% or more (almost completely withered)) | 4 (Herbicidal ratio of 70% or higher and lower than 90%) | 3 (Herbicidal ratio of 40% or higher and lower than 70%) | 4 (Herbicidal ratio of 70% or higher and lower than 90%) | 3 (Herbicidal ratio of 40% or higher and lower than 70%) | 0 (Herbicidal ratio of 5% or lower (almost no effect)) | – |
| CON=C(C)CC1CC(OC(=O)N2CCOCC2)=C(c2c(C)cc(-c3ccc(F)cc3)cc2C)C1=O (mixture of isomers) [6-059] | 5 (Herbicidal ratio of 90% or more (almost completely withered)) | 4 (Herbicidal ratio of 70% or higher and lower than 90%) | 2 (Herbicidal ratio of 20% or higher and lower than 40%) | 3 (Herbicidal ratio of 40% or higher and lower than 70%) | 5 (Herbicidal ratio of 90% or more (almost completely withered)) | 0 (Herbicidal ratio of 5% or lower (almost no effect)) | 3 (Herbicidal ratio of 40% or higher and lower than 70%) | 0 (Herbicidal ratio of 5% or lower (almost no effect)) | 0 (Herbicidal ratio of 5% or lower (almost no effect)) | 0 (Herbicidal ratio of 5% or lower (almost no effect)) | 5 (Herbicidal ratio of 90% or more (almost completely withered)) | 5 (Herbicidal ratio of 90% or more (almost completely withered)) | 5 (Herbicidal ratio of 90% or more (almost completely withered)) | 5 (Herbicidal ratio of 90% or more (almost completely withered)) | 4 (Herbicidal ratio of 70% or higher and lower than 90%) | 5 (Herbicidal ratio of 90% or more (almost completely withered)) | 0 (Herbicidal ratio of 5% or lower (almost no effect)) | 0 (Herbicidal ratio of 5% or lower (almost no effect)) | – |
| CON=C(C)CC1CC(OS(=O)(=O)N(C)C)=C(c2c(C)cc(-c3ccc(F)cc3)cc2C)C1=O (mixture of isomers) [6-060] | 5 (Herbicidal ratio of 90% or more (almost completely withered)) | 4 (Herbicidal ratio of 70% or higher and lower than 90%) | 4 (Herbicidal ratio of 70% or higher and lower than 90%) | 0 (Herbicidal ratio of 5% or lower (almost no effect)) | 0 (Herbicidal ratio of 5% or lower (almost no effect)) | 5 (Herbicidal ratio of 90% or more (almost completely withered)) | 0 (Herbicidal ratio of 5% or lower (almost no effect)) | 0 (Herbicidal ratio of 5% or lower (almost no effect)) | 0 (Herbicidal ratio of 5% or lower (almost no effect)) | 0 (Herbicidal ratio of 5% or lower (almost no effect)) | 4 (Herbicidal ratio of 70% or higher and lower than 90%) | 5 (Herbicidal ratio of 90% or more (almost completely withered)) | 5 (Herbicidal ratio of 90% or more (almost completely withered)) | 4 (Herbicidal ratio of 70% or higher and lower than 90%) | 4 (Herbicidal ratio of 70% or higher and lower than 90%) | 4 (Herbicidal ratio of 70% or higher and lower than 90%) | 1 (Herbicidal ratio of 5% or higher and lower than 20%) | 2 (Herbicidal ratio of 20% or higher and lower than 40%) | – |
